Assay results reported in ChEMBL document CHEMBL1142994, “Structure-based design, synthesis, and biological evaluation of potent and selective macrocyclic checkpoint kinase 1 inhibitors” (J Med Chem, 2007).

Tests used:
NCI-H1299 [1] = test: Accumulation of H1299 cells in G2/M phase measured as cell cycle arrest by FACS assay; assay type: functional, cell-based, Homo sapiens
HeLa [2] = test: Cytotoxicity against HeLa cells by MTS assay; assay type: functional, cell-based, Homo sapiens
NCI-H1299 [3] = test: Inhibition of accumulation of H1299 cells in G2/M phase in presence of doxorubicin by FACS assay; assay type: functional, cell-based, Homo sapiens
[4] = target: T1, Serine/threonine-protein kinase Chk1 (Homo sapiens, UniProt O14757); test: Inhibition of recombinant Chk1
T1 sequence (O14757 whole entry): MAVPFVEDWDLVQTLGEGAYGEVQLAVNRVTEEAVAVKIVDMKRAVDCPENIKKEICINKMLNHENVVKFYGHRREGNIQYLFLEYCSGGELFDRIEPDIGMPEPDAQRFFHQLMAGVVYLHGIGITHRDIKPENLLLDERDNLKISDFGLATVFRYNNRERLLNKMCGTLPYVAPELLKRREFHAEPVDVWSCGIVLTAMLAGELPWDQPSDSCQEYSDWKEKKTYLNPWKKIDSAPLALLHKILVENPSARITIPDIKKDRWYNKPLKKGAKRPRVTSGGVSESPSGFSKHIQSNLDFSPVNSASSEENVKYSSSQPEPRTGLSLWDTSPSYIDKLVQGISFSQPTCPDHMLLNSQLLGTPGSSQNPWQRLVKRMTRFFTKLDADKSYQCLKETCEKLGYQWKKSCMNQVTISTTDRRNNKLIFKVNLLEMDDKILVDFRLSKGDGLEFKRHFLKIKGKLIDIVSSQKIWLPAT

HeLa [5] = test: Cytotoxicity against HeLa cells in presence of doxorubicin by MTS assay; assay type: functional, cell-based, Homo sapiens
[6] = target: T2, Serine/threonine-protein kinase Sgk1 (Homo sapiens, UniProt O00141); test: Inhibition of SGK
T2 sequence (O00141 whole entry): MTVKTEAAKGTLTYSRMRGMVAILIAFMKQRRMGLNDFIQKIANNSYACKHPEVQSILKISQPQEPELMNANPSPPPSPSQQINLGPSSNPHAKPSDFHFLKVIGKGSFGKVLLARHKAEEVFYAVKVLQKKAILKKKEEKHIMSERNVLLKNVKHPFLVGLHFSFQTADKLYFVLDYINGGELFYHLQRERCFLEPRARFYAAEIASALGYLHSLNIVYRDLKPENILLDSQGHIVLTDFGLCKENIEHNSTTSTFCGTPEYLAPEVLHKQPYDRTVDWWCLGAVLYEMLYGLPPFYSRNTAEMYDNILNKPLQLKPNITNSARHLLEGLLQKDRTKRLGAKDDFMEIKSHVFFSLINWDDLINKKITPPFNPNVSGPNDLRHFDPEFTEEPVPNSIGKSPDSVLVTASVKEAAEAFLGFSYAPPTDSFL

[7] = target: T3, Mitogen-activated protein kinase 13 (Homo sapiens, UniProt O15264); test: Inhibition of p38 delta
T3 sequence (O15264 whole entry): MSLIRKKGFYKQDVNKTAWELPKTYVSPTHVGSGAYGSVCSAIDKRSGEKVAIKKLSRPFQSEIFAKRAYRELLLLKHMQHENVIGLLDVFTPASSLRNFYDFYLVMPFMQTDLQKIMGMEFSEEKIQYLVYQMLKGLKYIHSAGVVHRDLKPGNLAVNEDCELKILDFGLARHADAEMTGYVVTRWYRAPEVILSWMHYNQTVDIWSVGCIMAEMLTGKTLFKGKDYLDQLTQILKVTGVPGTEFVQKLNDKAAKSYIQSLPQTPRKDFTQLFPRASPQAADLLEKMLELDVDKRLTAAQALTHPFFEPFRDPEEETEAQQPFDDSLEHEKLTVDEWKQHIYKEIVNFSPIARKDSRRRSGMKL

[8] = target: T4, Calcium/calmodulin-dependent protein kinase type IV (Homo sapiens, UniProt Q16566); test: Inhibition of Camk4
T4 sequence (Q16566 whole entry): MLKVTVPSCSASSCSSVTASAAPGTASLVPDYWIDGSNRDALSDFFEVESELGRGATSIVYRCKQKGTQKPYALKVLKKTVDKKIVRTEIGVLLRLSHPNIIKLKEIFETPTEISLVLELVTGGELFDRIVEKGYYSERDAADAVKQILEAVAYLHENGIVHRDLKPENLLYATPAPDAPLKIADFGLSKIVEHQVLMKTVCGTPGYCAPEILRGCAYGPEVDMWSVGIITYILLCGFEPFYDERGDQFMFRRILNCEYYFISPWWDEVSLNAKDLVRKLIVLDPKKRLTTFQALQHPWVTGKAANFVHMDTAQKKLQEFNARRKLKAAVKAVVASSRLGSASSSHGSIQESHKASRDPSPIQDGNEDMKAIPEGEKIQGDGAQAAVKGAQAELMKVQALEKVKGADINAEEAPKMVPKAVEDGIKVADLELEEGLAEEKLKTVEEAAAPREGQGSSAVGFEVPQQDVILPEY

[9] = Homo sapiens, HeLa, read-out: EC50

N#Cc1ncc2nc1OCCCCCOc1cc(NCc3cncs3)c(Cl)cc1NC(=O)N2
EC50 (NCI-H1299 [1]; Homo sapiens, NCI-H1299): > 10000 nM | EC50 (HeLa [2]; [9]): > 59000 nM | EC50 (NCI-H1299 [3]; Homo sapiens, NCI-H1299): 110 nM | IC50 [4]: 6 nM | EC50 (HeLa [5]; Homo sapiens, HeLa): 1200 nM

N#Cc1ncc2nc1OCCCCCOc1cc(NCCO)c(Cl)cc1NC(=O)N2
IC50 [4]: 2 nM

N#Cc1ncc2nc1OCCCCCOc1cc(NCc3cccnc3)c(Cl)cc1NC(=O)N2
EC50 (NCI-H1299 [1]; nci-h1299): > 10000 nM | EC50 (HeLa [2]; hela, read-out: EC50): > 59000 nM | EC50 (NCI-H1299 [3]; nci-h1299): 330 nM | IC50 [4]: 12 nM | EC50 (HeLa [5]; hela): 1600 nM

N#Cc1ncc2nc1OCCCCCOc1cc(OCc3ccccn3)c(Cl)cc1NC(=O)N2
IC50 [4]: 63 nM

N#Cc1ncc2nc1OCCCCCOc1cc(NCc3cnco3)c(Cl)cc1NC(=O)N2
IC50 [4]: 7 nM

CC(=O)Nc1cc2c(cc1Cl)NC(=O)Nc1cnc(C#N)c(n1)OCCCCCO2
IC50 [4]: 7 nM

N#Cc1ncc2nc1OCCCCCOc1cc(NCc3c[nH]cn3)c(Cl)cc1NC(=O)N2
IC50 [4]: 231 nM

N#Cc1ncc2nc1OCCCCCOc1cc(OCCn3ccnc3)c(Cl)cc1NC(=O)N2
IC50 [4]: 3 nM

N#Cc1ncc2nc1OCCCCCCOc1ccc(Cl)cc1NC(=O)N2
IC50 [4]: 28 nM

CC(C)CCOc1cc2c(cc1Cl)NC(=O)Nc1cnc(C#N)c(n1)OCCCCCO2
IC50 [4]: 1060 nM

CC(C)Oc1cc2c(cc1Cl)NC(=O)Nc1cnc(C#N)c(n1)OCCCCCO2
IC50 [4]: 13 nM

CCN(CC)CC#Cc1cc2c(cc1Cl)NC(=O)Nc1cnc(C#N)c(n1)OCCCCCO2
IC50 [4]: 2 nM

CN(C)CC(=O)Nc1cc2c(cc1Cl)NC(=O)Nc1cnc(C#N)c(n1)OCCCCCO2
IC50 [4]: 1 nM

CC(C)CNc1cc2c(cc1Cl)NC(=O)Nc1cnc(C#N)c(n1)OCCCCCO2
IC50 [4]: 17 nM

N#Cc1ncc2nc1OCCCCCOc1cc(NCc3ccsc3)c(Cl)cc1NC(=O)N2
IC50 [4]: 162 nM

N#Cc1ncc2nc1OCCCCCOc1cc(NCc3ccncc3)c(Cl)cc1NC(=O)N2
EC50 (NCI-H1299 [1]; nci-h1299): > 10000 nM | EC50 (HeLa [2]; hela, read-out: EC50): > 59000 nM | EC50 (NCI-H1299 [3]; nci-h1299): 1200 nM | IC50 [4]: 13 nM | EC50 (HeLa [5]; hela): 1400 nM

COCCOCCOc1cc2c(cc1Cl)NC(=O)Nc1cnc(C#N)c(n1)OCCCCCO2
IC50 [4]: 9 nM

N#Cc1ncc2nc1OCCCCCOc1cc(OCCCO)c(Cl)cc1NC(=O)N2
Ki [6]: > 10000 nM | Ki [7]: > 10000 nM | Ki [8]: > 10000 nM

CS(=O)(=O)Nc1cc2c(cc1Cl)NC(=O)Nc1cnc(C#N)c(n1)OCCCCCO2
EC50 (NCI-H1299 [1]; Homo sapiens, NCI-H1299): > 10000 nM | EC50 (HeLa [2]; [9]): > 59000 nM | Ki [6]: > 10000 nM | EC50 (NCI-H1299 [3]; Homo sapiens, NCI-H1299): 1600 nM | Ki [7]: > 10000 nM | Ki [8]: > 10000 nM | EC50 (HeLa [5]; Homo sapiens, HeLa): 2700 nM

N#Cc1ncc2nc1OCCCCOc1ccc(Cl)cc1NC(=O)N2
EC50 (NCI-H1299 [1]; Homo sapiens, NCI-H1299): > 10000 nM | EC50 (HeLa [2]): 57600 nM | IC50 [4]: 6 nM | EC50 (HeLa [5]; Homo sapiens, HeLa): 3080 nM

N#Cc1ncc2nc1OCCCCCOc1cc(OCCCN)c(Cl)cc1NC(=O)N2
IC50 [4]: 1 nM

CC(C)CCCOc1cc2c(cc1Cl)NC(=O)Nc1cnc(C#N)c(n1)OCCCCCO2
IC50 [4]: > 10000 nM

N#Cc1ncc2nc1OCCCCCOc1cc(OCc3ccncc3)c(Cl)cc1NC(=O)N2
IC50 [4]: 12 nM

N#Cc1ncc2nc1OCCCCCOc1cc(O)c(Cl)cc1NC(=O)N2
EC50 (HeLa [2]; [9]): > 59000 nM | IC50 [4]: 6 nM | EC50 (HeLa [5]; Homo sapiens, HeLa): 1900 nM

Cn1cncc1CNc1cc2c(cc1Cl)NC(=O)Nc1cnc(C#N)c(n1)OCCCCCO2
IC50 [4]: 2 nM

N#Cc1ncc2nc1OCCCCCOc1cc(CCCO)c(Cl)cc1NC(=O)N2
EC50 (NCI-H1299 [1]; Homo sapiens, NCI-H1299): > 10000 nM | EC50 (HeLa [2]; [9]): 28700 nM | Ki [6]: > 10000 nM | EC50 (NCI-H1299 [3]; Homo sapiens, NCI-H1299): 190 nM | Ki [8]: > 10000 nM | EC50 (HeLa [5]; Homo sapiens, HeLa): 860 nM

CN(C)CCOc1cc2c(cc1Cl)NC(=O)Nc1cnc(C#N)c(n1)OCCCCCO2
IC50 [4]: 1 nM

COCCOc1cc2c(cc1Cl)NC(=O)Nc1cnc(C#N)c(n1)OCCCCCO2
IC50 [4]: 5 nM

N#Cc1ncc2nc1OCCCCCOc1cc(N)c(Cl)cc1NC(=O)N2
EC50 (NCI-H1299 [1]; Homo sapiens, NCI-H1299): 7600 nM | EC50 (HeLa [2]; [9]): > 59000 nM | EC50 (NCI-H1299 [3]; Homo sapiens, NCI-H1299): 240 nM | IC50 [4]: 3 nM | EC50 (HeLa [5]; Homo sapiens, HeLa): 430 nM

CCN(CC)c1cc2c(cc1Cl)NC(=O)Nc1cnc(C#N)c(n1)OCCCCCO2
IC50 [4]: 248 nM

N#Cc1ncc2nc1OCCCCCOc1cc(C#CCO)c(Cl)cc1NC(=O)N2
IC50 [4]: 10 nM

N#Cc1ncc2nc1OCCCCCOc1cc(CC(O)CO)c(Cl)cc1NC(=O)N2 (stereo not drawn)
IC50 [4]: 5 nM

CCNc1cc2c(cc1Cl)NC(=O)Nc1cnc(C#N)c(n1)OCCCCCO2
IC50 [4]: 4 nM

CN(C)c1cc2c(cc1Cl)NC(=O)Nc1cnc(C#N)c(n1)OCCCCCO2
IC50 [4]: 7 nM

N#Cc1ncc2nc1OCCCCCOc1cc(N(CCO)CCO)c(Cl)cc1NC(=O)N2
IC50 [4]: 4 nM

CCOc1cc2c(cc1Cl)NC(=O)Nc1cnc(C#N)c(n1)OCCCCCO2
IC50 [4]: 6 nM

CC(O)C#Cc1cc2c(cc1Cl)NC(=O)Nc1cnc(C#N)c(n1)OCCCCCO2 (stereo not drawn)
IC50 [4]: 26 nM

N#Cc1ncc2nc1OCCCCCOc1cc(OCc3cccnc3)c(Cl)cc1NC(=O)N2
IC50 [4]: 9 nM

CCCCNc1cc2c(cc1Cl)NC(=O)Nc1cnc(C#N)c(n1)OCCCCCO2
IC50 [4]: 15 nM

N#Cc1ncc2nc1OCCCCCOc1ccc(Cl)cc1NC(=O)N2
EC50 (NCI-H1299 [1]; Homo sapiens, NCI-H1299): > 10000 nM | EC50 (HeLa [2]): 57600 nM | EC50 (NCI-H1299 [3]; Homo sapiens, NCI-H1299): 2700 nM | IC50 [4]: 7 nM | EC50 (HeLa [5]; Homo sapiens, HeLa): 3040 nM

N#Cc1ncc2nc1OCCCCCOc1cc(NCc3ccccc3)c(Cl)cc1NC(=O)N2
IC50 [4]: 266 nM

N#Cc1ncc2nc1OCCCCCOc1cc(NC(=O)CCNC3CCCC3)c(Cl)cc1NC(=O)N2
IC50 [4]: 2 nM

CNc1cc2c(cc1Cl)NC(=O)Nc1cnc(C#N)c(n1)OCCCCCO2
IC50 [4]: 2 nM

O=C1Nc2cncc(n2)OCCCCCOc2ccc(Cl)cc2N1
EC50 (NCI-H1299 [1]; Homo sapiens, NCI-H1299): > 10000 nM | EC50 (HeLa [2]): >59000 nM | EC50 (NCI-H1299 [3]; Homo sapiens, NCI-H1299): 7500 nM | IC50 [4]: 10 nM | EC50 (HeLa [5]; Homo sapiens, HeLa): 37800 nM

N#Cc1ncc2nc1OCCCCCOc1cc(N3CCCCC3)c(Cl)cc1NC(=O)N2
IC50 [4]: 139 nM

N#Cc1ncc2nc1OCCCCCOc1cc(OCCO)c(Cl)cc1NC(=O)N2
EC50 (NCI-H1299 [1]; Homo sapiens, NCI-H1299): > 10000 nM | EC50 (HeLa [2]; [9]): > 59000 nM | EC50 (NCI-H1299 [3]; Homo sapiens, NCI-H1299): 700 nM | EC50 (HeLa [5]; Homo sapiens, HeLa): 3010 nM

CC(C)Nc1cc2c(cc1Cl)NC(=O)Nc1cnc(C#N)c(n1)OCCCCCO2
IC50 [4]: 11 nM

CC(C)(O)C#Cc1cc2c(cc1Cl)NC(=O)Nc1cnc(C#N)c(n1)OCCCCCO2
IC50 [4]: 109 nM
